Columns and labels:
[1] = test system: hTNFα-induced neutrophil recruitment; assay: Neutrophil recruitment in mice, compound given orally before hTNFα i.p.; format: in vivo, Balb/c mice
Experimental: In a further experiment, mice were treated with hTNFα (0.3 μg/ml) and the compound of formula (3) was administered orally (p.o.).
The compound of formula (3) was made into a suspension in 1% methylcellulose vehicle using a covaris machine.
An anti-human TNFα monoclonal antibody (anti-hTNFα, UCB) was also utilised as a positive control in this study.
Ten male Balb/c mice were used per group except in the group that received anti-hTNFα for which 4 mice were used.
Mice received 100 μL of either vehicle (1% methylcellulose) or compound of formula (3) at 30 mg/kg or 100 mg/kg p.o. 30 minutes (t=−30) or anti-hTNFα at 10 mg/kg i.p. 5 minutes (t=−5) prior to being injected with human TNFα.
All mice were killed by cervical dislocation two hours post-injection of hTNFα (t=2 h) and the peritoneal cavity was lavaged and neutrophil numbers measured as described above.

[2] = molecular target: TNFα (Homo sapiens, UniProt P01375); assay: Fluorescence probed thermal denaturation assay (Thermofluor) of TNFα; format: binding; details: TNFα + 5% DMSO + compound
Experimental: A fluorescence probed thermal denaturation assay was performed to assess the effect of the compounds on the thermal stability of TNFα as a measure of compound binding. The reaction mix contained 5 μl of 30×SYPRO® Orange dye (Invitrogen) and 5 μl of TNFα (at 1.0 mg/ml), 37.5 μl PBS, pH 7.4 and 2.5 μl of compound (at 2 mM in DMSO). 10 μl of the mix was dispensed in quadruplicate into a 384 PCR optical well plate and was run on a 7900HT Fast Real-Time PCR System […]. PCR
System heating device was set at 20° C. to 99° C. with a ramp rate of 1.1° C./min; fluorescence changes in the wells were monitored by a Charge-coupled device (CCD). The fluorescence intensity increase was plotted as a function of temperature and the Tm calculated as the midpoint of this denaturation curve (determined as the point of inflection) (Table 1).
Thermofluor measures the change of melting temperature (Tm) of TNFα due to compound either stabilising or disrupting the protein.

[3] = test system: hTNFα-induced neutrophil recruitment; assay: Neutrophil recruitment in mice, compound pre-mixed with hTNFα, i.p.; format: in vivo, Balb/c mice; details: for neutrophil recruitment vs TNFα in the absence of the compound: sample 1, ratio compound:TNFα 0.1:1, i.p.
Experimental: In separate studies, compounds of formula (3) and formula (15) were mixed with 20 μM solutions of TNFα dissolved in phosphate buffered saline (PBS) to a concentration of 2 μM, 20 μM and 200 μM. The ratio of each compound to TNFα was, therefore, 0.1:1 (sample 1), 1:1 (sample 2) and 10:1 (sample 3). […] This process separates protein bound compound and free compound. A control sample containing PBS only was processed in the same way to provide a vehicle control for the study. The concentration of eluted protein was determined using a Nanodrop (ND-1000). The TNFα: compound complexes were diluted in PBS to a concentration for injection of 0.03 μg/kg
For the study, typically, each group contained 10 male Balb/c mice (Charles River) apart from an anti-human TNFα antibody positive control, which used a set of 5 mice.
Compound only mice were also included in the study to assess the effect of compound on neutrophil recruitment.
All mice were killed by cervical dislocation two hours post-injection of hTNFα (t=2 h) and the peritoneal cavity was lavaged with 3 mL of FACS buffer (500 mL PBS containing 2 g bovine serum albumin, 6 mL HEPES buffer and […]). Lavage fluid was aspirated and neutrophil numbers were assessed by staining cells with anti-Gr1 PE and anti-CD45 FITC by FACS as detailed below.
100 μL of lavage fluid from each sample was aliquoted into FACS tubes. A FACS cocktail was made up using anti-GR-1 PE (BD cat #553128 Lot #75542) at 1 in 39 dilution and anti-CD45 FITC (BD cat #553080 Lot #80807) at 1 in 19 dilution in FACS buffer. Fc block (BD Cat #553142 Lot #87810) was prepared 1 in 10 with FACS buffer and 10 μL added to each sample 5 minutes before adding the antibody cocktail. […] Samples were then left for 20 mins on ice. 1 mL of FACS Lyse solution (BD Cat #349202 Lot #29076, diluted 1:10 in dH2O) was added to each tube, mixed and left at room temperature for 5 minutes. 1 mL of FACS Buffer was then added to each tube and centrifuged at 400 g for 5 minutes. The FACS buffer was then carefully poured off and the tip of the tube dabbed on absorbent paper to leave the tube completely dry. Then […] of 1 in 10 Reference Bead solution (Sigma cat #P2477 Lot #116K1612) diluted in FACS buffer was added to each tube.
Samples were analysed using FACScalibur II and FloJo software.

[4] = sample 2, ratio compound:TNFα 1:1, i.p.
[5] = sample 3, ratio compound:TNFα 10:1, i.p.

TNFα, sequence (P01375 77-233 limits assumed): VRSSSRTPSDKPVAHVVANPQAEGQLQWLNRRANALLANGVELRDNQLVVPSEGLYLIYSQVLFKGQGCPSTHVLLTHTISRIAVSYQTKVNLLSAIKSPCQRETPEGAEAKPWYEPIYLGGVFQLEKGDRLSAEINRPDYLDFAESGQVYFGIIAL

Compound	reduction of TNFα stimulated neutrophil recruitment into the peritoneal cavity ([1]; 30 mg/kg p.o.)	reduction of TNFα stimulated neutrophil recruitment into the peritoneal cavity ([1]; 100 mg/kg p.o.)	Tm (° C.) (mean ± sd) [2]	Tm difference (= (TNF + cpd) - (TNF + DMSO)) [2]	neutrophil recruitment vs TNFα in the absence of the compound [3]	inhibition of neutrophil recruitment [3, 4]	inhibition of neutrophil recruitment [3, 5]
Cc1ccc(C)c(Cn2c(C(O)c3ccncc3)nc3ccccc32)c1 (stereo not drawn) [Compound 3]	49%	79%	73.2 ± 0.6 (n = 4) ° C.	11.8 °C	not significantly different	86%	85%
Cc1ccc(C)c(Cn2c(C(O)c3ccncc3)nc3ccc(-c4cnn(C)c4)cc32)c1 (stereo not drawn) [Compound 15]	–	–	78.5 ± 1.1 (n = 4) ° C.	17.1 °C	not significantly different	101%	102%

— US11674967B2, “Method of identifying potential inhibitors of APO TNFα trimers” (UCB BIOPHARMA SRL, priority 2015, dated 2023)
